# According to the SangsterLogP compilation:
smiles,measurement,value
CN(C)c1nnc(C(C)(C)C)c(=O)n1C,logP,1.07
CNc1nnc(-c2cc(Cl)cc(Cl)c2)c(=O)n1N,logP,1.91
CSc1nnc(C2CCCCC2)c(=O)n1N,logP,2.09
COc1nnc(C(C)(C)C)c(=O)n1N,logP,1.31
CCOc1cccc(-c2nnc(S)n(C)c2=O)c1,logP,2.67
CNc1nnc(-c2ccc(OC(F)(F)F)cc2)c(=O)[nH]1,logP,1.86
CNc1nnc(C(C)(C)C)c(=O)n1N,logP,0.52
Nn1c(S)nnc(-c2cc(Cl)cc(Cl)c2)c1=O,logP,2.67
CSc1nnc(-c2cc(Cl)cc(Cl)c2)c(=O)n1N,logP,3.02
CSc1nnc(C)c(=O)n1N,logP,0.15
CCOc1cccc(-c2nnc(C)n(NC)c2=O)c1,logP,1.91
CNc1nnc(-c2ccc(F)c(Cl)c2)c(=O)n1C,logP,1.6
Cn1c(S)nnc(-c2cc(Cl)cc(Cl)c2)c1=O,logP,3.43
Cc1nnc(C(C)(C)C)c(=O)n1N,logP,1.03
CSc1nnc(C(C)C)c(=O)n1N,logP,1.23
CSc1nnc(-c2ccc(OC(F)(F)F)cc2)c(=O)[nH]1,logP,2.35
CSc1nnc(C2CCOCC2)c(=O)n1N,logP,1.07
Cn1c(S)nnc(-c2ccc(F)cc2)c1=O,logP,2.38
CNc1nnc(-c2ccc(OC(F)(F)F)c(Cl)c2)c(=O)n1C,logP,2.35
CSc1nnc(CC(C)C)c(=O)n1N,logP,1.53
CCCc1nnc(SC)n(N)c1=O,logP,1.19
